Molecules are shown by their SMILES.

The target in this assay is T1, CpomOR3 (Cydia pomonella, UniProt H9A5M3).
T1 construct: gene OR3; full-length ORF cloned in pUASg-HA.attB, expressed in Drosophila melanogaster ab3A olfactory neurons (pOr22a-Gal4ki empty neuron line); with Odorant receptor coreceptor (Drosophila melanogaster, endogenous in the ab3A neuron)
T1 sequence (H9A5M3 1-426): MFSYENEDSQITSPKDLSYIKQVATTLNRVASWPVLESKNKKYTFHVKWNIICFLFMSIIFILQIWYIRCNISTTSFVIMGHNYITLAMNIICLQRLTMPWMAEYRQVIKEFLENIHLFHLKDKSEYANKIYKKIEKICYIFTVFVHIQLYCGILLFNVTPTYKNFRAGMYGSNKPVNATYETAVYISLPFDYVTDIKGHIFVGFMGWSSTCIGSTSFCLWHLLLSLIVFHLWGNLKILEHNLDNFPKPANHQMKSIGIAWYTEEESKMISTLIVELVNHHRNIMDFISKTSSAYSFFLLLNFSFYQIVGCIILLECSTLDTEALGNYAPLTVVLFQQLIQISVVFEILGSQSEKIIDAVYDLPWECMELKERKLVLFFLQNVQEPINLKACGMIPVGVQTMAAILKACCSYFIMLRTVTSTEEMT
T1 sequence (Q9VNB5 1-486 partner): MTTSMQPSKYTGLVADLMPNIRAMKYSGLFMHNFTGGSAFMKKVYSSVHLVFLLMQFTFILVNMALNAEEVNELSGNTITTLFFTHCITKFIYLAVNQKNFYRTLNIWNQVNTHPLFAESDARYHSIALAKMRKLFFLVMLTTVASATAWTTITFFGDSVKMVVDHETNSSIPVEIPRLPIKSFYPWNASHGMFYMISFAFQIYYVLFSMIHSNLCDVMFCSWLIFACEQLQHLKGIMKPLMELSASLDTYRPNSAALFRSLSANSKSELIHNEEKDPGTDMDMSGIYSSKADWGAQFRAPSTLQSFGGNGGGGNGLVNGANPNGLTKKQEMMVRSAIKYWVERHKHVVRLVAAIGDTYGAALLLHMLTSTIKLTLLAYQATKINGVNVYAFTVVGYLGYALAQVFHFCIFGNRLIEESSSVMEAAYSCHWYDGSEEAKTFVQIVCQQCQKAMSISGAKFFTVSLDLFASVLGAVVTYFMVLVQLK
Briefly: GC-coupled single sensillum recording (GC-SSR), ab3A neuron. As to conditions: pear ester eluting from apple fruit headspace on GC, dose not stated, n = 3; activation; synthetic pear ester dose response (1, 10, 25 ng) not given. The class given is cell-based. The source says:
GC-coupled single sensillum recording (GC-SSR), ab3A neuron on CpomOR3 | antennal sensilla expressing CpomOR3 began to respond at the retention time of pear ester

In the case of `CCCCC/C=C\C=C\C(=O)OCC` [pear ester, ethyl (E,Z)-2,4-decadienoate], the spike frequency response is 12.9 ± 4.1 spikes/s.

Values taken from publication PMC11772392, “Host Plant Odour and Sex Pheromone are Integral to Mate Finding in Codling Moth” (Journal of Chemical Ecology, 2025).
